# Source: US20080009418A1, “Selective Inhibitors” (Alchemia LTD., priority 2004, published 2008)
# Key:
# Human δ-opioid (DOP) = molecular target: T1, Human δ-opioid (DOP) (Homo sapiens, UniProt P41143); test: Radioligand binding, human δ-opioid (DOP) membranes, FlashPlate, [3H]-Bremazocine; conditions: compound at 10 μM, [3H]-Bremazocine
# T1 construct: purchased Perkin Elmer Biosignal
# Procedure, shortened: (§1)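 Cloned human receptor membranes were coated onto FlashPlate wells and incubated with radioligand and compound (added from a 0.5 mM DMSO daughter plate) for 1 hour at room temperature in the dark. Scintillation counting gave percent inhibition, with DMSO defining total and reference ligand defining non-specific binding.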
# Human κ-Opioid (KOP) = molecular target: T2, Human κ-Opioid (KOP) (Homo sapiens, UniProt P41145); test: Radioligand binding, human κ-opioid (KOP) membranes, filtration, [3H]-Diprenorphine; conditions: compound at 10 μM, [3H]-Diprenorphine
# T2 construct: purchased Perkin Elmer Biosignal
# Procedure, shortened: (§2)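 Membranes from cloned human receptors were incubated with compound and radioligand for 1 hour at room temperature. Bound ligand was collected on 0.3% PEI-soaked filters, washed with cold 50 mM Tris-HCl pH 7.4, and counted by scintillation. Percent inhibition was computed against DMSO totals and reference-ligand nonspecific wells.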
# Human Melanocortin (MC3) = molecular target: T3, Human Melanocortin (MC3) (Homo sapiens, UniProt P41968); test: Radioligand binding, human melanocortin MC3 membranes, FlashPlate, [125I]-NDP-αMSH; conditions: compound at 10 μM, [125I]-NDP-αMSH
# T3 construct: purchased Perkin Elmer Biosignal
# Procedure, shortened: as §1
# Human Melanocortin (MC4) = molecular target: T4, Human Melanocortin (MC4) (Homo sapiens, UniProt P32245); test: Radioligand binding, human melanocortin MC4 membranes, FlashPlate, [125I]-NDP-αMSH; conditions: compound at 10 μM, [125I]-NDP-αMSH
# T4 construct: purchased Perkin Elmer Biosignal
# Procedure, shortened: as §1
# Human melanocortin (MC5) = molecular target: T5, Human melanocortin (MC5) (Homo sapiens, UniProt P33032); test: Radioligand binding, human melanocortin MC5 membranes, FlashPlate, [125I]-NDP-αMSH; conditions: compound at 10 μM, [125I]-NDP-αMSH
# T5 construct: purchased Perkin Elmer Biosignal
# Procedure, shortened: as §1
# [1] = molecular target: T6, Human melanin-concentrating hormone (MCH1) (Homo sapiens, UniProt Q99705); test: Radioligand binding, human melanin-concentrating hormone MCH1 membranes, FlashPlate, [125I]-S36057; conditions: compound at 10 μM
# T6 construct: purchased Perkin Elmer Biosignal
# Procedure, shortened: as §1
# Human μ-opioid (MOP) = molecular target: T7, Human μ-opioid (MOP) (Homo sapiens, UniProt P35372); test: Radioligand binding, human μ-opioid (MOP) membranes, FlashPlate, [3H]-Naloxone; conditions: compound at 10 μM, [3H]-Naloxone
# T7 construct: purchased Perkin Elmer Biosignal
# Procedure, shortened: as §1
# Human neurokinin (NK1) = molecular target: T8, Human neurokinin (NK1) (Homo sapiens, UniProt P25103); test: Radioligand binding, human neurokinin NK1 membranes, filtration, [125I]-Substance P; conditions: compound at 10 μM, [125I]-Substance P
# T8 construct: purchased Perkin Elmer Biosignal
# Procedure, shortened: as §2
# [2] = molecular target: T9, Human neuropeptide Y (NPY-Y1) (Homo sapiens, UniProt P25929); test: Radioligand binding, human neuropeptide Y NPY-Y1 membranes, FlashPlate, [125I]-PYY; conditions: compound at 10 μM, [125I]-PYY
# T9 construct: purchased Perkin Elmer Biosignal
# T9 sequence (P25929 1-384): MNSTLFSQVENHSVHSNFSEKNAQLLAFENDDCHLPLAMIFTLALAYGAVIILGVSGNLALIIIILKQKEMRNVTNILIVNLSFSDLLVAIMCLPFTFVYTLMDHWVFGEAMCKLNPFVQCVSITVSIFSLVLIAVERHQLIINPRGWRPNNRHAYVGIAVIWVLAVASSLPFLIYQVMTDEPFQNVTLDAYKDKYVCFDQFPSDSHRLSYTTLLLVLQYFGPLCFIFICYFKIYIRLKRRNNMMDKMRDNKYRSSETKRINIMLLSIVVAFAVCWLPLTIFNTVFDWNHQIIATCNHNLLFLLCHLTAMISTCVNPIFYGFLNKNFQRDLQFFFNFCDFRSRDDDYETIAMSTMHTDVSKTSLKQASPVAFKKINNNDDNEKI
# Procedure, shortened: as §1
# Human opioid (ORL1) = molecular target: T10, Human opioid (ORL1) (Homo sapiens, UniProt P41146); test: Radioligand binding, human opioid ORL1 membranes, FlashPlate, [125I]-Nociceptin; conditions: compound at 10 μM, [125I]-Nociceptin
# T10 construct: purchased Perkin Elmer Biosignal
# Procedure, shortened: as §1
# Mouse urotensin (mUR2) = molecular target: T11, Mouse urotensin (mUR2) (Mus musculus, UniProt Q8VIH9); test: Radioligand binding, mouse urotensin mUR2 membranes, FlashPlate, [125I]-Urotensin II; conditions: compound at 10 μM, [125I]-Urotensin II
# T11 construct: purchased Perkin Elmer Biosignal
# T11 sequence (Q8VIH9 1-385): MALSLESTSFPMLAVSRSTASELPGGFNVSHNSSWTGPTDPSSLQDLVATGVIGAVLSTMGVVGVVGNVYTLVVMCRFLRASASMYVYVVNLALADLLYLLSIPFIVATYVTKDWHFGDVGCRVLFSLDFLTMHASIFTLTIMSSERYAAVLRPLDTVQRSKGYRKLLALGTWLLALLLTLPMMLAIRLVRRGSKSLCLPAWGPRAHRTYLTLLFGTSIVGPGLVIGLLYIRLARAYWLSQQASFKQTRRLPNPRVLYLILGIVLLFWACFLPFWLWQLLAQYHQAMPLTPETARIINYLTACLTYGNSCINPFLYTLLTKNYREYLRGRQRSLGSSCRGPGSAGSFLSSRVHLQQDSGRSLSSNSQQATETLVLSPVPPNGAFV
# Procedure, shortened: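 Cloned mouse urotensin (mUR2) receptor membranes from Perkin Elmer Biosignal were immobilized in FlashPlate microplates using a proprietary coating. Each well got 19.5 μl buffer, then 0.5 μl of DMSO, reference ligand, or compound. Adding 5 μl of [125I]-Urotensin II, diluted to 5× final concentration in binding buffer, started binding. Plates were sealed with TopSeal-A and incubated 1 hour at room temperature in the dark. Wells were counted for 30 seconds each on a TopCount after a 60-second delay, and percentage inhibition was calculated.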
# T2 sequence (P41145 whole entry): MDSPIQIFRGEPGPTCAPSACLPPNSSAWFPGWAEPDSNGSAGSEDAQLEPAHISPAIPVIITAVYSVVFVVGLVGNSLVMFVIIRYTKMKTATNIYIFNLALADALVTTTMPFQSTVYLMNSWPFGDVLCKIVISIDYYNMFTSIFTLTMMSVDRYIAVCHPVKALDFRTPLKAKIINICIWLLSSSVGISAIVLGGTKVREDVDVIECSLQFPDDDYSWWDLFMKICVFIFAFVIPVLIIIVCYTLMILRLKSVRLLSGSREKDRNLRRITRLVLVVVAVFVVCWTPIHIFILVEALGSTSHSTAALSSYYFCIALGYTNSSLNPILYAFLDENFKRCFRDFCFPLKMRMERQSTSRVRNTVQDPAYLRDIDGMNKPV
# T3 sequence (P41968 whole entry): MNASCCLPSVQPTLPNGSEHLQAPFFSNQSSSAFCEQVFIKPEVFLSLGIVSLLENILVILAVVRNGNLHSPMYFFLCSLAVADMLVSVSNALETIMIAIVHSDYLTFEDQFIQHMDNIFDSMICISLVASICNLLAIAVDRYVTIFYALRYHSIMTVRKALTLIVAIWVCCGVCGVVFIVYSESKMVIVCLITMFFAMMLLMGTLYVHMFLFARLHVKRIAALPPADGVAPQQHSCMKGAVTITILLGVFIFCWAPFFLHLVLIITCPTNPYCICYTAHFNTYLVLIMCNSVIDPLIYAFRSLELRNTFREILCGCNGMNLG
# T6 sequence (Q99705 whole entry): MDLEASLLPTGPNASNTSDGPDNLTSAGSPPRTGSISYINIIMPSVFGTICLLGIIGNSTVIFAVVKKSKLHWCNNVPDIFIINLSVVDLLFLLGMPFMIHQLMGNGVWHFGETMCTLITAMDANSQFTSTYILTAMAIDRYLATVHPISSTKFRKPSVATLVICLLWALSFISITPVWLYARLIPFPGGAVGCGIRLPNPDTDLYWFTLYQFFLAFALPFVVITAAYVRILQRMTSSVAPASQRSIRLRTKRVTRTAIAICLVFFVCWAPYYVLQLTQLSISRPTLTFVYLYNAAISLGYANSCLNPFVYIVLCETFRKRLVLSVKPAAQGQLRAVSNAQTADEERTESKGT
# T7 sequence (P35372 whole entry): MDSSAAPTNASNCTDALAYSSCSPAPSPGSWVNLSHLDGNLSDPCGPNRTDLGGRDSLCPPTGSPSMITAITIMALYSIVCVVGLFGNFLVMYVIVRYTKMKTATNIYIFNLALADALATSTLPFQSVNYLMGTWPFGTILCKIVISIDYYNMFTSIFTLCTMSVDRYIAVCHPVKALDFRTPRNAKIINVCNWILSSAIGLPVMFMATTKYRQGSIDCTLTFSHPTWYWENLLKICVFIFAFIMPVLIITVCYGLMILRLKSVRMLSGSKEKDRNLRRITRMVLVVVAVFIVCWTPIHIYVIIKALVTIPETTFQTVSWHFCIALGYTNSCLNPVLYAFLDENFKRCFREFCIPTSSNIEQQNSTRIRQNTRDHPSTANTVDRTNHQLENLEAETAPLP
# T4 sequence (P32245 whole entry): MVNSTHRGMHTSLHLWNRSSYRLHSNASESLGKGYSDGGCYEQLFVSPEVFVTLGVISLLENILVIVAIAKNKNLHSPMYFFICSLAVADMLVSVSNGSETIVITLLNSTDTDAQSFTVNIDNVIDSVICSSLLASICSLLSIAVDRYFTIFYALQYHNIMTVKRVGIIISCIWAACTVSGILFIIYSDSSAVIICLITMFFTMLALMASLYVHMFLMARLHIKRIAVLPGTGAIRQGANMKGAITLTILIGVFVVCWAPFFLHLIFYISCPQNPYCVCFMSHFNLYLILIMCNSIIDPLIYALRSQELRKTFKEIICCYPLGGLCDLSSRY
# T10 sequence (P41146 whole entry): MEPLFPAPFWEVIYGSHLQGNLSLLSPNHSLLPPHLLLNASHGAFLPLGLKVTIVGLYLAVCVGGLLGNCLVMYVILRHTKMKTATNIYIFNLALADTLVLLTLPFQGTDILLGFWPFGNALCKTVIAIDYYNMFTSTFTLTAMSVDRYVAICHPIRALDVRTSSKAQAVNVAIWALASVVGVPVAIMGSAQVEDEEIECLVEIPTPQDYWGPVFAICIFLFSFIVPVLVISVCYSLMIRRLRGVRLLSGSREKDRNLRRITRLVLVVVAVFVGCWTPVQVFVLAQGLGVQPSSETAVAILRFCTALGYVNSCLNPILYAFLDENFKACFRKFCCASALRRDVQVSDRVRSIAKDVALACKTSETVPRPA
# T8 sequence (P25103 whole entry): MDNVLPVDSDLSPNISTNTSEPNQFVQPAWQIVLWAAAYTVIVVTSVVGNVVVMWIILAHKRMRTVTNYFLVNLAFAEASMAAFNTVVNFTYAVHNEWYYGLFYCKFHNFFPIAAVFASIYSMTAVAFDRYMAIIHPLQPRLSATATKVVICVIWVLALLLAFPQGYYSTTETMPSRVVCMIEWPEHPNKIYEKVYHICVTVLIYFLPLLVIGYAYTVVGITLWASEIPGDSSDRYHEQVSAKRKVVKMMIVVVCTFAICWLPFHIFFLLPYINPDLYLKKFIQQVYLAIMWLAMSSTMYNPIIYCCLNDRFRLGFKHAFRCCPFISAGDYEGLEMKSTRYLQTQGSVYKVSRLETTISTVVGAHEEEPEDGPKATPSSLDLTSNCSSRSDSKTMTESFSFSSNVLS
# T1 sequence (P41143 whole entry): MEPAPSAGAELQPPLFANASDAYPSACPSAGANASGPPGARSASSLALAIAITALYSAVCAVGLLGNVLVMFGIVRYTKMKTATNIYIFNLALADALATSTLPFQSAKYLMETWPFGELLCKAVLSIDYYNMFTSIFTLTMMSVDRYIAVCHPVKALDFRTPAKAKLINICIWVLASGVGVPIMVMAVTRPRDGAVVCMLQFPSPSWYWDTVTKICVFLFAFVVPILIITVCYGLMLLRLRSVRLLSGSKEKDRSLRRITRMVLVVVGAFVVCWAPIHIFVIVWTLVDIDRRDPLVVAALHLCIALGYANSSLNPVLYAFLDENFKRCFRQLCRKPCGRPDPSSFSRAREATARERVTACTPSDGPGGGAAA
# T5 sequence (P33032 whole entry): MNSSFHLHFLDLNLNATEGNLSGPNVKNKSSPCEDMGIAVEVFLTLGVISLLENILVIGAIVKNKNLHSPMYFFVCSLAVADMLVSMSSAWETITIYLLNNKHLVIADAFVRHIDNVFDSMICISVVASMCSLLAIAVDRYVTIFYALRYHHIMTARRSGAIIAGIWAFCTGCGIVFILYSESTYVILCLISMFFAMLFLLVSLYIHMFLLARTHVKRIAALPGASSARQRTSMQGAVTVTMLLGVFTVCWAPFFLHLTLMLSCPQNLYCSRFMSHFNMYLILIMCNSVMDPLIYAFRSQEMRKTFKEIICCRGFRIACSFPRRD
compound,measurement,setting,value
N=C(N)NCCC(=O)N[C@H]1C(OCc2ccc(Cl)cc2)O[C@H](COCc2ccccc2)[C@@H](O)[C@@H]1OCc1ccc(Cl)cc1 (stereo partly shown) [compound 524],"A1: inhibition of radioligand binding, human δ-opioid (DOP)",Human δ-opioid (DOP),− (“−” indicates less than 50% inhibition at 10 μM)
same,"A2: inhibition of radioligand binding, human κ-opioid (KOP)",Human κ-Opioid (KOP); 10 µM,− (“−” indicates less than 50% inhibition at 10 μM)
same,"A3: inhibition of radioligand binding, human melanocortin (MC3)",Human Melanocortin (MC3); 10 µM,− (“−” indicates less than 50% inhibition at 10 μM)
same,"A4: inhibition of radioligand binding, human melanocortin (MC4)",Human Melanocortin (MC4); 10 µM,− (“−” indicates less than 50% inhibition at 10 μM)
same,"A5: inhibition of radioligand binding, human melanocortin (MC5)",Human melanocortin (MC5),+ (“+” indicates greater than 50% inhibition at 10 μM)
same,"A6: inhibition of radioligand binding, human melanin-concentrating hormone (MCH1)",[1]; [125I]-S36057,+ (“+” indicates greater than 50% inhibition at 10 μM)
same,"A7: inhibition of radioligand binding, human μ-opioid (MOP)",Human μ-opioid (MOP),− (“−” indicates less than 50% inhibition at 10 μM)
same,"A8: inhibition of radioligand binding, human neurokinin (NK1)",Human neurokinin (NK1),+ (“+” indicates greater than 50% inhibition at 10 μM)
same,"A9: inhibition of radioligand binding, human neuropeptide Y (NPY-Y1)",[2],− (“−” indicates less than 50% inhibition at 10 μM)
same,"A10: inhibition of radioligand binding, human opioid (ORL1)",Human opioid (ORL1),− (“−” indicates less than 50% inhibition at 10 μM)
same,"A11: inhibition of radioligand binding, mouse urotensin (mUR2)",Mouse urotensin (mUR2),− (“−” indicates less than 50% inhibition at 10 μM)
COCC1OC(OCCc2ccccc2)C(NC(=O)CCCN)C(OCc2ccccc2)C1O (stereo not shown) [compound 217],A1: inhibition of radioligand binding,Human δ-opioid (DOP); FlashPlate,− (“−” indicates less than 50% inhibition at 10 μM)
same,A2: inhibition of radioligand binding,Human κ-Opioid (KOP); filtration,− (“−” indicates less than 50% inhibition at 10 μM)
same,A3: inhibition of radioligand binding,Human Melanocortin (MC3); FlashPlate,− (“−” indicates less than 50% inhibition at 10 μM)
same,A4: inhibition of radioligand binding,Human Melanocortin (MC4); FlashPlate,− (“−” indicates less than 50% inhibition at 10 μM)
same,A5: inhibition of radioligand binding,Human melanocortin (MC5); FlashPlate,− (“−” indicates less than 50% inhibition at 10 μM)
same,A6: inhibition of radioligand binding,"[1]; [125I]-S36057, FlashPlate",− (“−” indicates less than 50% inhibition at 10 μM)
same,A7: inhibition of radioligand binding,Human μ-opioid (MOP); FlashPlate,− (“−” indicates less than 50% inhibition at 10 μM)
same,A8: inhibition of radioligand binding,Human neurokinin (NK1); filtration,+ (“+” indicates greater than 50% inhibition at 10 μM)
same,A9: inhibition of radioligand binding,[2]; FlashPlate,− (“−” indicates less than 50% inhibition at 10 μM)
same,A10: inhibition of radioligand binding,Human opioid (ORL1); FlashPlate,− (“−” indicates less than 50% inhibition at 10 μM)
same,A11: inhibition of radioligand binding,Mouse urotensin (mUR2); FlashPlate,− (“−” indicates less than 50% inhibition at 10 μM)
NCCC(=O)N[C@H]1C(OCc2ccc3ccccc3c2)O[C@H](COCc2ccc3ccccc3c2)[C@@H](O)[C@@H]1OCc1ccc(Cl)cc1 (stereo partly shown) [compound 436],A1: inhibition of radioligand binding,Human δ-opioid (DOP); human DOP membranes,− (“−” indicates less than 50% inhibition at 10 μM)
same,A2: inhibition of radioligand binding,Human κ-Opioid (KOP); human KOP membranes,− (“−” indicates less than 50% inhibition at 10 μM)
same,A3: inhibition of radioligand binding,Human Melanocortin (MC3); human MC3 membranes,+ (“+” indicates greater than 50% inhibition at 10 μM)
same,A4: inhibition of radioligand binding,Human Melanocortin (MC4); human MC4 membranes,+ (“+” indicates greater than 50% inhibition at 10 μM)
same,A5: inhibition of radioligand binding,Human melanocortin (MC5); human MC5 membranes,+ (“+” indicates greater than 50% inhibition at 10 μM)
same,A6: inhibition of radioligand binding,"[1]; [125I]-S36057, human MCH1 membranes",+ (“+” indicates greater than 50% inhibition at 10 μM)
same,A7: inhibition of radioligand binding,Human μ-opioid (MOP); human MOP membranes,− (“−” indicates less than 50% inhibition at 10 μM)
same,A8: inhibition of radioligand binding,Human neurokinin (NK1); human NK1 membranes,+ (“+” indicates greater than 50% inhibition at 10 μM)
same,A9: inhibition of radioligand binding,[2]; human NPY-Y1 membranes,− (“−” indicates less than 50% inhibition at 10 μM)
same,A10: inhibition of radioligand binding,Human opioid (ORL1); human ORL1 membranes,− (“−” indicates less than 50% inhibition at 10 μM)
same,A11: inhibition of radioligand binding,Mouse urotensin (mUR2); mouse mUR2 membranes,− (“−” indicates less than 50% inhibition at 10 μM)
CSC1OC(COCc2ccccc2)C(O)C(OCc2ccc3ccccc3c2)C1NC(=O)CCNC(=N)N (stereo not shown) [compound 303],"A1: inhibition of radioligand binding, human δ-opioid (DOP)",Human δ-opioid (DOP),− (“−” indicates less than 50% inhibition at 10 μM)
same,"A2: inhibition of radioligand binding, human κ-opioid (KOP)",Human κ-Opioid (KOP),− (“−” indicates less than 50% inhibition at 10 μM)
same,"A3: inhibition of radioligand binding, human melanocortin (MC3)",Human Melanocortin (MC3),− (“−” indicates less than 50% inhibition at 10 μM)
same,"A4: inhibition of radioligand binding, human melanocortin (MC4)",Human Melanocortin (MC4),+ (“+” indicates greater than 50% inhibition at 10 μM)
same,"A5: inhibition of radioligand binding, human melanocortin (MC5)",Human melanocortin (MC5),+ (“+” indicates greater than 50% inhibition at 10 μM)
same,"A6: inhibition of radioligand binding, human melanin-concentrating hormone (MCH1)",[1]; [125I]-S36057,− (“−” indicates less than 50% inhibition at 10 μM)
same,"A7: inhibition of radioligand binding, human μ-opioid (MOP)",Human μ-opioid (MOP),− (“−” indicates less than 50% inhibition at 10 μM)
same,"A8: inhibition of radioligand binding, human neurokinin (NK1)",Human neurokinin (NK1),+ (“+” indicates greater than 50% inhibition at 10 μM)
same,"A9: inhibition of radioligand binding, human neuropeptide Y (NPY-Y1)",[2],− (“−” indicates less than 50% inhibition at 10 μM)
same,"A10: inhibition of radioligand binding, human opioid (ORL1)",Human opioid (ORL1),− (“−” indicates less than 50% inhibition at 10 μM)
same,"A11: inhibition of radioligand binding, mouse urotensin (mUR2)",Mouse urotensin (mUR2),− (“−” indicates less than 50% inhibition at 10 μM)
CO[C@H]1[C@H](O)[C@@H](COCc2ccc3ccccc3c2)OC(OCc2ccc(Cl)cc2)[C@@H]1NC(=O)CCNC(=N)N (stereo partly shown) [compound 98],"A1 radioligand binding, percentage inhibition",Human δ-opioid (DOP),− (“−” indicates less than 50% inhibition at 10 μM)
same,"A2 radioligand binding, percentage inhibition",Human κ-Opioid (KOP),− (“−” indicates less than 50% inhibition at 10 μM)
same,"A3 radioligand binding, percentage inhibition",Human Melanocortin (MC3),− (“−” indicates less than 50% inhibition at 10 μM)
same,"A4 radioligand binding, percentage inhibition",Human Melanocortin (MC4),+ (“+” indicates greater than 50% inhibition at 10 μM)
same,"A5 radioligand binding, percentage inhibition",Human melanocortin (MC5),+ (“+” indicates greater than 50% inhibition at 10 μM)
same,"A6 radioligand binding, percentage inhibition",[1]; [125I]-S36057,+ (“+” indicates greater than 50% inhibition at 10 μM)
same,"A7 radioligand binding, percentage inhibition",Human μ-opioid (MOP),− (“−” indicates less than 50% inhibition at 10 μM)
same,"A8 radioligand binding, percentage inhibition",Human neurokinin (NK1),+ (“+” indicates greater than 50% inhibition at 10 μM)
same,"A9 radioligand binding, percentage inhibition",[2],− (“−” indicates less than 50% inhibition at 10 μM)
same,"A10 radioligand binding, percentage inhibition",Human opioid (ORL1),− (“−” indicates less than 50% inhibition at 10 μM)
same,"A11 radioligand binding, percentage inhibition",Mouse urotensin (mUR2),− (“−” indicates less than 50% inhibition at 10 μM)
